{"source": "patent US11046954B2", "about": "“Targeted protein degradation to attenuate adoptive T-cell therapy associated adverse inflammatory responses” (Dana-Farber Cancer Institute, Inc., priority 2015, dated 2021)", "test_system": "NIH3T3 expressing FKBP* fused to the N-terminus of KRASG12V", "test": "Phase contrast imaging of NIH3T3 cells expressing FKBP*-KRASG12V", "format": "cell-based", "settings": "NIH3T3 expressing dTAG-KRAS; dFKBP13, 24 hours; vs DMSO", "protocol": "FIG. 23A, FIG. 23B, FIG. 23C, and FIG. 23D are panels of phase contrast images of control NIH3T3 cells or NIH3T3 expressing FKBP* fused to the N-terminus of KRASG12V treated with DMSO or dFKBP13 for 24 hours.", "note": "Entries after “also recorded” stand apart in the source; their conditions may differ.", "data": [{"smiles": "CC[C@H](C(=O)N1CCCC[C@H]1C(=O)O[C@H](CCc1ccc(OC)c(OC)c1)c1cccc(OCC(=O)NCCCCCCOc2cccc3c2C(=O)N(C2CCC(=O)NC2=O)C3=O)c1)c1cc(OC)c(OC)c(OC)c1", "note": "(stereo partly shown) [dFKBP13]", "values": [{"measurement": "morphological change of cells", "result": "cells morphologically revert back to the wild type (DMSO control) state; also recorded: morphological change induced"}]}]}
